Measurements: patent publication US8901313B2, “6,5-heterocyclic propargylic alcohol compounds and uses therefor” (Genentech, Inc., priority 2011, dated 2014)

Each molecule was assayed against T1, nuclear factor-kappa B (NF-kB)-inducing kinase (NIK) (Homo sapiens, UniProt Q99558) (assay: NIK Enzyme Inhibition Assay (Transcreener ADP assay)). Conditions: purified NIK 0.2-1 nM, 10 uM ATP, fluorescence polarization, Morrison's quadratic equation; read-out: inhibitory value (Ki) for NIK.
T1 construct: made in house; host or cells: baculovirus-infected insect cells
T1 sequence (Q99558 whole entry): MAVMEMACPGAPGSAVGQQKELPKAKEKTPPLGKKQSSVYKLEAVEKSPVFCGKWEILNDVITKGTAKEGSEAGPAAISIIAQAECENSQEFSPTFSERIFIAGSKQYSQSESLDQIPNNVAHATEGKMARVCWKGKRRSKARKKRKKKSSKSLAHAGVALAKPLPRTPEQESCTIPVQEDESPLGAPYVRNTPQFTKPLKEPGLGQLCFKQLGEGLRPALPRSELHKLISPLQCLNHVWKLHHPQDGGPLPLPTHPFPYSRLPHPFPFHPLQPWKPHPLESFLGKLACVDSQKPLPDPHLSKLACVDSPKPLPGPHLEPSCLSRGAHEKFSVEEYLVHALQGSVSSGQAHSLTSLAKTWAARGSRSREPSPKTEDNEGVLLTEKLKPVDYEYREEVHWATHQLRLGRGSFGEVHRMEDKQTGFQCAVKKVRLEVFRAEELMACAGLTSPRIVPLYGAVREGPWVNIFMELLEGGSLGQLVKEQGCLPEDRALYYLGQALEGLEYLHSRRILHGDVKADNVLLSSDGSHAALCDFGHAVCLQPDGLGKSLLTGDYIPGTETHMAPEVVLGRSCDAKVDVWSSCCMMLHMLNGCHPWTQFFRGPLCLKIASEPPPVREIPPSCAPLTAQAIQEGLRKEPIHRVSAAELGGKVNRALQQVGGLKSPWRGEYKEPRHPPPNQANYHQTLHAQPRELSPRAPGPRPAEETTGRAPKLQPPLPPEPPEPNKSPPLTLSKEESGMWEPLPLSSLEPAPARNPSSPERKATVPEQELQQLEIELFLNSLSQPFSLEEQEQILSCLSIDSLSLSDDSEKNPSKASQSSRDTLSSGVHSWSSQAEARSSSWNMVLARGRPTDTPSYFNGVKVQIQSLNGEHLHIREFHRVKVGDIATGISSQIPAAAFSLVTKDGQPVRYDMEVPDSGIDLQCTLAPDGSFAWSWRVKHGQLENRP
Type: biochemical

Row | Structure (SMILES) | Ki
1 | Cc1nn(-c2ccnc(N)n2)c2cc(C#CC(C)(O)c3ncc[nH]3)ccc12 (stereo not drawn) [Example T1.1-98, 4-[1-(2-aminopyrimidin-4-yl)-3-methyl-indazol-6-yl]-2-(1H-imidazol-2-yl)but-3-yn-2-ol] | 0.111 µM
2 | Cc1nn(-c2ccnc(N)n2)c2cc(C#CC(C)(O)C(=O)N(C)C)ccc12 (stereo not drawn) [Example T1.1-103, 4-[1-(2-aminopyrimidin-4-yl)-3-methyl-indazol-6-yl]-2-hydroxy-N,N,2-trimethyl-but-3-ynamide] | 0.315 µM
3 | Cc1cc(C(C)(O)C#Cc2ccc3nc(C(=O)N4CCCC4)n(-c4ccnc(N)n4)c3c2)no1 (stereo not drawn) [Example T1.1-104, [1-(2-aminopyrimidin-4-yl)-6-[3-hydroxy-3-(5-methylisoxazol-3-yl)but-1-ynyl]benzimidazol-2-yl]-pyrrolidin-1-yl-methanone] | 0.342 µM
4 | Cc1nc2ccc(C#CC3(O)CCCCC3)cc2n1-c1ncnc(N)n1 [Example T1.1-106, 1-[2-[3-(4-amino-1,3,5-triazin-2-yl)-2-methyl-benzimidazol-5-yl]ethynyl]cyclohexanol] | 0.775 µM
5 | CC(O)(C#Cc1ccc2nc(OCCO)n(-c3ccnc(N)n3)c2c1)c1ccc(F)cn1 (stereo not drawn) [Example T1.1-108, 4-[3-(2-aminopyrimidin-4-yl)-2-(2-hydroxyethoxy)benzimidazol-5-yl]-2-(5-fluoro-2-pyridyl)but-3-yn-2-ol] | 1.6 µM
6 | Cc1nc2ccc(C#CC(O)C3CC(O)C3)cc2n1-c1ncnc(N)n1 (stereo not drawn) [Example T1.1-109, 3-[3-[3-(4-amino-1,3,5-triazin-2-yl)-2-methyl-benzimidazol-5-yl]-1-hydroxy-prop-2-ynyl]cyclobutanol] | 1.6 µM
7 | Cc1nc2ccc(C#CC(C)(O)c3nc(CC#N)cs3)cc2n1-c1ncnc(N)n1 (stereo not drawn) [Example T1.1-112, 2-[2-[3-[3-(4-amino-1,3,5-triazin-2-yl)-2-methyl-benzimidazol-5-yl]-1-hydroxy-1-methyl-prop-2-ynyl]thiazol-4-yl] acetonitrile] | 1.8 µM
8 | Cc1nc2ccc(C#CC3(O)CCCOC3)cc2n1-c1ncnc(N)n1 (stereo not drawn) [Example T1.1-114, 3-[2-[3-(4-amino-1,3,5-triazin-2-yl)-2-methyl-benzimidazol-5-yl]ethynyl] tetrahydropyran-3-ol] | 2.6 µM
9 | Cc1nc2ccc(C#CC3(O)CC(CO)C3)cc2n1-c1ncnc(N)n1 (stereo not drawn) [Example T1.1-115, 1-[2-[3-(4-amino-1,3,5-triazin-2-yl)-2-methyl-benzimidazol-5-yl]ethynyl]-3-(hydroxymethyl)cyclobutanol] | 3.9 µM
10 | Cc1nc2ccc(C#CC3(O)COC3)cc2n1-c1ncnc(N)n1 [Example T1.1-116, 3-[2-[3-(4-amino-1,3,5-triazin-2-yl)-2-methyl-benzimidazol-5-yl]ethynyl] oxetan-3-ol] | ≥ 5 µM
11 | CN(C)C(=O)c1nn(-c2ccnc(N)n2)c2cc(C#CC3(O)CCn4cncc43)ccc12 (stereo not drawn) [Example T1.1-117, 1-(2-aminopyrimidin-4-yl)-6-[2-(7-hydroxy-5,6-dihydropyrrolo[1,2-c]imidazol-7-yl)ethynyl]-N,N-dimethyl-indazole-3-carboxamide] | ≥ 5 µM
12 | Cc1nc2ccc(C#CC(C)(C)CO)cc2n1-c1ncnc(N)n1 [Example T1.1-118, 4-[3-(4-amino-1,3,5-triazin-2-yl)-2-methyl-benzimidazol-5-yl]-2,2-dimethyl-but-3-yn-1-ol] | ≥ 5 µM
13 | CNc1ccnc(-n2ncc3ccc(C#CC(C)(O)c4cc(C)on4)cc32)n1 (stereo not drawn) [Example T1.1-119, 4-[1-[4-(methylamino)pyrimidin-2-yl]indazol-6-yl]-2-(5-methyl-isoxazol-3-yl)but-3-yn-2-ol] | ≥ 5 µM
14 | Cc1nc([C@](C)(O)C#Cc2ccc3nc(OCCF)n(-c4ccnc(N)n4)c3c2)no1 [Example T1.1-122, (2R)-4-[3-(2-aminopyrimidin-4-yl)-2-(2-fluoroethoxy)benzimidazol-5-yl]-2-(5-methyl-1,2,4-oxadiazol-3-yl)but-3-yn-2-ol] | 0.0003 µM
15 | Cc1nc2ccc(C#CC(C)(O)Cn3cccn3)cc2n1-c1ncnc(N)n1 (stereo not drawn) [Example T1.1-126, 4-[3-(4-amino-1,3,5-triazin-2-yl)-2-methyl-benzimidazol-5-yl]-2-methyl-1-pyrazol-1-yl-but-3-yn-2-ol] | ≥ 5 µM
16 | COCCNc1nc2ccc(C#CC(C)(O)c3nc(C)cs3)cc2n1-c1ccnc(N)n1 (stereo not drawn) [Example T1.1-131, 4-[3-(2-aminopyrimidin-4-yl)-2-(2-methoxyethylamino)benzimidazol-5-yl]-2-(4-methylthiazol-2-yl)but-3-yn-2-ol] | 0.009 µM
17 | Cc1nn(-c2ccnc(N)n2)c2cc(C#CC3(O)CCCN(C)C3=O)ccc12 (stereo not drawn) [Example T1.1-136, 3-[2-[1-(2-aminopyrimidin-4-yl)-3-methyl-indazol-6-yl]ethynyl]-3-hydroxy-1-methyl-piperidin-2-one] | 0.002 µM
18 | Cc1nnc(C(C)(O)C#Cc2ccc3c(C(=O)N4CCOCC4)nn(-c4ccnc(N)n4)c3c2)o1 (stereo not drawn) [Example T1.1-137, [1-(2-aminopyrimidin-4-yl)-6-[3-hydroxy-3-(5-methyl-1,3,4-oxadiazol-2-yl)but-1-ynyl]indazol-3-yl]-morpholino-methanone] | 0.007 µM

Further lines, results first:

Row | Ki | Structure (SMILES)
19 | 0.1 µM | CC(C)(O)C#Cc1ccc2nc(OC3COC3)n(-c3ccnc(N)n3)c2c1 [Example T1.1-96, 4-[3-(2-aminopyrimidin-4-yl)-2-(oxetan-3-yloxy)benzimidazol-5-yl]-2-methyl-but-3-yn-2-ol]
20 | 0.102 µM | Cc1cc(C(C)(O)C#Cc2ccc3nc(OC4CN(CCO)C4)n(-c4ccnc(N)n4)c3c2)no1 (stereo not drawn) [Example T1.1-97, 4-[3-(2-aminopyrimidin-4-yl)-2-[1-(2-hydroxyethyl)azetidin-3-yl]oxy-benzimidazol-5-yl]-2-(5-methyl-isoxazol-3-yl)but-3-yn-2-ol]
21 | 0.129 µM | Cc1nc2ccc(C#CC(C)(O)CC3CC3)cc2n1-c1ncnc(N)n1 (stereo not drawn) [Example T1.1-99, 4-[3-(4-amino-1,3,5-triazin-2-yl)-2-methyl-benzimidazol-5-yl]-1-cyclopropyl-2-methyl-but-3-yn-2-ol]
22 | 0.13 µM | Cc1nc2ccc(C#CC(C)(O)CO)cc2n1-c1ncnc(N)n1 (stereo not drawn) [Example T1.1-100, 4-[3-(4-amino-1,3,5-triazin-2-yl)-2-methyl-benzimidazol-5-yl]-2-methyl-but-3-yne-1,2-diol]
23 | 0.15 µM | CNc1nccc(-n2ncc3ccc(C#C[C@@](C)(O)c4cc(C)on4)cc32)n1 [Example T1.1-101, (2R)-4-[1-[2-(methylamino)pyrimidin-4-yl]indazol-6-yl]-2-(5-methylisoxazol-3-yl)but-3-yn-2-ol]
24 | 0.31 µM | Cc1nn(-c2ccnc(N)n2)c2cc(C#CC(C)(O)C(=O)N3CC(O)C3)ccc12 (stereo not drawn) [Example T1.1-102, 4-[1-(2-aminopyrimidin-4-yl)-3-methyl-indazol-6-yl]-2-hydroxy-1-(3-hydroxyazetidin-1-yl)-2-methyl-but-3-yn-1-one]
25 | 0.913 µM | Cc1nc2ccc(C#CC3(CO)CCCC3)cc2n1-c1ncnc(N)n1 [Example T1.1-107, [1-[2-[3-(4-amino-1,3,5-triazin-2-yl)-2-methyl-benzimidazol-5-yl]ethynyl]cyclopentyl]methanol]
26 | 1.7 µM | Cc1nc2ccc(C#CC3(O)CC4CCC3C4)cc2n1-c1ncnc(N)n1 (stereo not drawn) [Example T1.1-110, 2-[2-[3-(4-amino-1,3,5-triazin-2-yl)-2-methyl-benzimidazol-5-yl]ethynyl] norbornan-2-ol]
27 | 1.7 µM | Cc1nc2ccc(C#CC(C)(O)c3nc(CO)cs3)cc2n1-c1ncnc(N)n1 (stereo not drawn) [Example T1.1-111, 4-[3-(4-amino-1,3,5-triazin-2-yl)-2-methyl-benzimidazol-5-yl]-2-[4-(hydroxy-methyl)thiazol-2-yl]but-3-yn-2-ol]
28 | 2.4 µM | Cc1nc2ccc(C#CC3(O)CC(C#N)C3)cc2n1-c1ncnc(N)n1 (stereo not drawn) [Example T1.1-113, 3-[2-[3-(4-amino-1,3,5-triazin-2-yl)-2-methyl-benzimidazol-5-yl]ethynyl]-3-hydroxy-cyclobutanecarbonitrile]
29 | ≥ 5 µM | Nc1nccc(-n2ncc3c(F)cc(C#CC4(O)CCCC4)cc32)n1 [Example T1.1-120, 1-[2-[1-(2-aminopyrimidin-4-yl)-4-fluoro-indazol-6-yl]ethynyl] cyclopentanol]
30 | ≥ 5 µM | CC(O)(C#Cc1ccc2c(C(=O)N3CCOCC3)nn(-c3ccnc(N)n3)c2c1)c1ccncn1 (stereo not drawn) [Example T1.1-121, [1-(2-aminopyrimidin-4-yl)-6-(3-hydroxy-3-pyrimidin-4-yl-but-1-ynyl)indazol-3-yl]-morpholino-methanone]
31 | ≥ 5 µM | CC(O)(C#Cc1ccc2nc(OCCO)n(-c3ccnc(N)n3)c2c1)c1ccc(Cl)cn1 (stereo not drawn) [Example T1.1-123, 4-[3-(2-aminopyrimidin-4-yl)-2-(2-hydroxyethoxy)benzimidazol-5-yl]-2-(5-chloro-2-pyridyl)but-3-yn-2-ol]
32 | 0.001 µM | Cc1nn(-c2ccnc(N)n2)c2cc(C#CC(C)(O)c3nccs3)ccc12 (stereo not drawn) [Example T1.1-125, 4-[1-(2-aminopyrimidin-4-yl)-3-methyl-indazol-6-yl]-2-thiazol-2-yl-but-3-yn-2-ol]
33 | ≥ 5 µM | CC(O)(C#Cc1ccc2c(C(=O)N3CCOCC3)nn(-c3ccnc(N)n3)c2c1)c1ncccn1 (stereo not drawn) [Example T1.1-130, [1-(2-aminopyrimidin-4-yl)-6-(3-hydroxy-3-pyrimidin-2-yl-but-1-ynyl)indazol-3-yl]-morpholino-methanone]
34 | 0.0004 µM | CC(O)(C#Cc1ccc2nc(OCCO)n(-c3ccnc(N)n3)c2c1)c1ccc(Cl)cn1 (stereo not drawn) [Example T1.1-133, 4-[3-(2-aminopyrimidin-4-yl)-2-(2-hydroxyethoxy)benzimidazol-5-yl]-2-(5-chloro-2-pyridyl)but-3-yn-2-ol]
35 | 0.0002 µM | COCCN(C)C(=O)c1nn(-c2ccnc(N)n2)c2cc(C#CC(C)(O)c3ncccn3)ccc12 (stereo not drawn) [Example T1.1-138, 1-(2-aminopyrimidin-4-yl)-6-(3-hydroxy-3-pyrimidin-2-yl-but-1-ynyl)-N-(2-methoxyethyl)-N-methyl-indazole-3-carboxamide]
36 | 0.02 µM | CC(O)(C#Cc1ccc2c(C(=O)N3CC(F)(F)C3)nn(-c3ccnc(N)n3)c2c1)c1ncccn1 (stereo not drawn) [Example T1.1-139, [1-(2-aminopyrimidin-4-yl)-6-(3-hydroxy-3-pyrimidin-2-yl-but-1-ynyl)indazol-3-yl]-(3,3-difluoroazetidin-1-yl)methanone]
